Test results: patent publication US20050048508A1, “Trehalose receptor and method for detecting trehalose with the same” (KABUSHIKI KAISHA HAYASHIBARA SEIBUTSU KAGAKU KENKYUJO, priority 2002, published 2005)

Target: T1, T1R1 and T1R3 with G protein α-subunits (α15 and α16/Z chimeric protein) (Mus musculus, UniProt Q925D8+Q99PG6, I706N)
T1 construct: expressed in transfected cells; host or cells: 293 cells, RCB 1637 (human embryonic kidney)
T1 sequence (Q99PG6 20-842 L120P/N244D/D281A/N309Y/P311T/S314P/H418Y): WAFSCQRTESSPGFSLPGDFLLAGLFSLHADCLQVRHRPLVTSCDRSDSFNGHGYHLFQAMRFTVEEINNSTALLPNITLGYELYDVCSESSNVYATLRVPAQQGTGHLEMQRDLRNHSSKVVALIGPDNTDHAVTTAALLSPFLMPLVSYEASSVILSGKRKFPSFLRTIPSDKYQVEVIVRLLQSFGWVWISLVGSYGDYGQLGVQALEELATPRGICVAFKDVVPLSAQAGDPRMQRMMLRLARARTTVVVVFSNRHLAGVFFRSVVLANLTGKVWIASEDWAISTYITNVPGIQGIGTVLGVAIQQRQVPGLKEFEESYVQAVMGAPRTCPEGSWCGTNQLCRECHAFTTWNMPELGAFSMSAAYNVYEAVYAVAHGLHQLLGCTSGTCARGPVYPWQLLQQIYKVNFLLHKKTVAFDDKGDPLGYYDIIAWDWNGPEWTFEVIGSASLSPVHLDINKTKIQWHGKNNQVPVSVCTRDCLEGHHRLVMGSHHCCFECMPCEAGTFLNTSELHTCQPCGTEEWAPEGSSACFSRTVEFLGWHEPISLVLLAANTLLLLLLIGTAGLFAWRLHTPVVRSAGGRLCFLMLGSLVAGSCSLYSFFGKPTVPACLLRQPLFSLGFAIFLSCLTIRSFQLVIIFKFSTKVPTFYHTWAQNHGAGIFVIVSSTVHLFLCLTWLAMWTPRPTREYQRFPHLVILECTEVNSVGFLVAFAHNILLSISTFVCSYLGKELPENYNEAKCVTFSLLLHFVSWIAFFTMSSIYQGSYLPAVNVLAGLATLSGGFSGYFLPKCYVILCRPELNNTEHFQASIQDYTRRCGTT
T1 sequence (Q925D8 21-858 I706N): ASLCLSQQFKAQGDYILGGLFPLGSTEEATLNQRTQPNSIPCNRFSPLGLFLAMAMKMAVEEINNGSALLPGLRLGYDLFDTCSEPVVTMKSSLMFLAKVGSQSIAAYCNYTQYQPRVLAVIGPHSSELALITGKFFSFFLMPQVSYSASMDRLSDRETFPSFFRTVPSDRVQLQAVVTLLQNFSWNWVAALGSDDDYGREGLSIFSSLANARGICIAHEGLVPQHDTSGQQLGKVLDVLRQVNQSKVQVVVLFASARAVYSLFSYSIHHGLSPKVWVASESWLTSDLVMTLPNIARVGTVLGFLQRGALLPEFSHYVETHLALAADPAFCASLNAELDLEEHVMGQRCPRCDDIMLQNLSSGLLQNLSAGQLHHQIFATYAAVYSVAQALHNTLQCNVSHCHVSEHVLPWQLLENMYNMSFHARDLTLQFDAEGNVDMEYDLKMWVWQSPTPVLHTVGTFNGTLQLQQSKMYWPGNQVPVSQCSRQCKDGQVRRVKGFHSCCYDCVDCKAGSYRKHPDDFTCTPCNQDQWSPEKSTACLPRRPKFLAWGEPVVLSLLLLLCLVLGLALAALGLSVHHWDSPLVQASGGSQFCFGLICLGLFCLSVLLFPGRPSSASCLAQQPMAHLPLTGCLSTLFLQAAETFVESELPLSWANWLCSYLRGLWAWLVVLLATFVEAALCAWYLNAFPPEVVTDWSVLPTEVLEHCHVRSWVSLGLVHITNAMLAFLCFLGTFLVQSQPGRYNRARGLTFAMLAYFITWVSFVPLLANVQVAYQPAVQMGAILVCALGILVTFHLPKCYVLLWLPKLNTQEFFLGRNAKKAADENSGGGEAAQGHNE
Test: Intracellular calcium ion assay, 293 cells coexpressing G protein α-subunits, T1R1 and T1R3
Assay type: cell-based
Details: 293 cells: T1R1 + T1R3 + G protein α-subunits; 0.67 ml of 1 M saccharide solution added to 2 ml cell suspension; FLUO-4 AM
Method: The coexpression vector for the G protein α-subunit α15 and the G protein α16/Z chimeric protein (hereinafter designated as “G protein α-subunits”) obtained in Example 1-3 was gene transferred to 293 cells, RCB 1637, a human embryonic kidney cell line, available from the Riken Bioresource Center, Ibaraki, Japan, by conventional lipofection. The gene transferred cells were suspended in Dulbecco's Modified Eagle's Medium (D-MEM) supplemented with 1 mg/L of “PUROMYCIN”, a trade mane of puromycin commercialized by Edge Biosystems, MD, USA, and 10% (v/v) of fetal calf serum to give a cell density of 2×10^6 cells/ml and cultured in a plastic petri dish for cell culture. […]
The captioned reactivity test was conducted according to a conventional intracellular calcium ion assay: 293 Cells prepared in Example 3, capable of coexpressing the G protein α-subunits and the sweet taste receptor(s), were cultured in a plastic petri dish for cell culture until reaching its confluent phase. […] Two milliliters of the resultant cell suspension was injected into a glass cuvette, commercialized by Hitachi, Ltd., Tokyo, Japan, and analyzed on “HITACHI 650-40”, a fluorescence spectrophotometer commercialized by Hitachi, Ltd., Tokyo, Japan. […]

Influx of calcium ion | Compound
Negative | OC[C@H]1O[C@@](CO)(O[C@H]2O[C@H](CO)[C@@H](O)[C@H](O)[C@H]2O)[C@@H](O)[C@@H]1O [Sucrose, reference compound]
Positive | OC[C@H]1O[C@H](O[C@H]2O[C@H](CO)[C@@H](O)[C@H](O)[C@H]2O)[C@H](O)[C@@H](O)[C@@H]1O [Trehalose]
